In the test the target is T1, MexG (Pseudomonas aeruginosa, UniProt Q9HWH6).
T1 sequence (Q9HWH6 1-148): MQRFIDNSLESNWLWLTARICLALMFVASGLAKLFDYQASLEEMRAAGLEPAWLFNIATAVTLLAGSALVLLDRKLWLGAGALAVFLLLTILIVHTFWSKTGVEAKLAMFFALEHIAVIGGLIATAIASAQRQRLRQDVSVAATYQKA
Briefly: intrinsic Trp fluorescence quenching titration. Type of test: binding.

SMILES strings stand for the structures.

`CCCCCCCc1[nH]c2ccccc2c(=O)c1O` [PQS, 2-heptyl-3-hydroxy-4(1H)-quinolone]: binding was characterised by a dissociation constant (Kd) of 1 µM.

As usually defined, the Kd is the equilibrium constant for the complex coming apart.
